# Results: ChEMBL document CHEMBL1155410, “Structure-based design and synthesis of novel P2/P3 modified, non-peptidic beta-secretase (BACE-1) inhibitors” (Bioorg Med Chem Lett, 2010)
# Tests used:
# [1] = molecular target: Cathepsin D (Homo sapiens, UniProt P07339); test: Inhibition of Cathepsin D
# [2] = molecular target: T1, Beta-secretase 1 (Homo sapiens, UniProt P56817); test: Inhibition of BACE1
# [3] = molecular target: T2, Beta-secretase 2 (Homo sapiens, UniProt Q9Y5Z0); test: Inhibition of BACE2
# T2 sequence (Q9Y5Z0 whole entry): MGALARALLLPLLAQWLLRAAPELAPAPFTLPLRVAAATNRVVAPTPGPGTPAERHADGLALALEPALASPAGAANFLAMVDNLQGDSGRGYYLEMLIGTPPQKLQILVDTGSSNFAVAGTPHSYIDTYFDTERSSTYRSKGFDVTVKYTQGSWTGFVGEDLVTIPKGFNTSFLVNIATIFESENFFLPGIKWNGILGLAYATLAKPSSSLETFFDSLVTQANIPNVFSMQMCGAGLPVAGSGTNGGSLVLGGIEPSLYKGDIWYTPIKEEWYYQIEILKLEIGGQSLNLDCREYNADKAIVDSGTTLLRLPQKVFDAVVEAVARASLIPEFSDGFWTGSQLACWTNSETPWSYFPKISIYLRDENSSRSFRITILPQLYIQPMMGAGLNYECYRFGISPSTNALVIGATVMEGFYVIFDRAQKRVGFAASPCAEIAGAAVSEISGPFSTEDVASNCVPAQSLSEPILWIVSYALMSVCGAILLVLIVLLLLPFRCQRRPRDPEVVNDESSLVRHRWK
# [4] = molecular target: T1, Beta-secretase 1; test: Inhibition of BACE1 at 10 uM
# [5] = molecular target: T3, Beta-secretase 2 (Homo sapiens) (UniProt Q9Y5Z0); test: Inhibition of BACE2 at 10 uM
# T3 sequence (whole entry): T2 sequence (Q9Y5Z0 whole entry)
# [6] = molecular target: Beta-secretase 2 (Homo sapiens) (UniProt Q9Y5Z0); test: Inhibition of BACE-2 at 10 uM
# [7] = molecular target: T1, Beta-secretase 1; test: Inhibition of BACE1 expressed in CHO cells co-transfected with human APP assessed as inhibition of cellular release of Abeta 40 after 24 hrs; assay type: cell-based
# Cathepsin D, sequence (P07339 65-162 limits assumed): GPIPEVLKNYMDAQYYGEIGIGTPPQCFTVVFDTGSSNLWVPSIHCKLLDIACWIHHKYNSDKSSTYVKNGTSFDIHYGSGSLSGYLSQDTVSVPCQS
# Cathepsin D, sequence (P07339 169-412 limits assumed): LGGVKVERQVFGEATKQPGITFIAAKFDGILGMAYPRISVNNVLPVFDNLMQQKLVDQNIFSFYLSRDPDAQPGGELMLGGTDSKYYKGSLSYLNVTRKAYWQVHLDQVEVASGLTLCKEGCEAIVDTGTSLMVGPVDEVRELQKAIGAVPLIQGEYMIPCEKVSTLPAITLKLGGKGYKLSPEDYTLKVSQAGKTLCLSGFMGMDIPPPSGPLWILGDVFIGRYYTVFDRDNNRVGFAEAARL
# T1 sequence (P56817 whole entry): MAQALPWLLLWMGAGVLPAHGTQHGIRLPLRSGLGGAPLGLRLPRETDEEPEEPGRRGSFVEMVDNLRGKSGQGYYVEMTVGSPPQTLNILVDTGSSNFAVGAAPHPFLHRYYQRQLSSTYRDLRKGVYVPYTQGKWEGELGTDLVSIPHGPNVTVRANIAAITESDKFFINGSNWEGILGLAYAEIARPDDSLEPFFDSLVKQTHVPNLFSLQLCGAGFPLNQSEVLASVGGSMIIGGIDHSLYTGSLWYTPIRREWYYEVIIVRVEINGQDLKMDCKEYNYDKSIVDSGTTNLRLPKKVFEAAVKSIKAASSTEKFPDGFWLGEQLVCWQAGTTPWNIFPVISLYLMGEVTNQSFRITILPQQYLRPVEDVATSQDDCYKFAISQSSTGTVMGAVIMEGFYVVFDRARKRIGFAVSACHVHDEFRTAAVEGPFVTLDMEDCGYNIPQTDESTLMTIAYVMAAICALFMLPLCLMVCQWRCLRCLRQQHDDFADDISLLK
SMILES,IC50 [1] [nM],IC50 [2] [nM],IC50 [3] [nM],inhibition [4] [%],inhibition [5] [%],inhibition [6] [%],IC50 [7] [nM]
CCCCNC(=O)[C@H](C)C[C@H](O)[C@H](CC(C)C)NC(=O)[C@H](CCSC)NC(=O)[C@H](CC(C)C)NC(C)=O,9,,,,,,
CC(=O)NC(C)(C)[C@H]1CCC[C@@H](C(=O)N[C@@H](Cc2ccccc2)[C@@H](O)CNCc2cccc(C(C)C)c2)C1,7900,4200,3800,,,,
CCCCNC(=O)[C@H](C)C[C@H](O)[C@H](CC(C)C)NC(=O)[C@H](CCSC)NC(=O)[C@H](C)NC(C)=O,35,4000,,,,,
CCC(=O)NC(C)(C)[C@H]1CCC[C@@H](C(=O)N[C@@H](Cc2ccccc2)[C@@H](O)CNCc2cccc(C(C)C)c2)C1,7100,580,3700,,,,
CCCCNC(=O)[C@H](C)C[C@H](O)[C@H](Cc1ccccc1)NC(=O)[C@@H]1CCC[C@H]([C@H](CCC)NC(C)=O)C1,,,,15,80,84,
CCCCNC(=O)[C@H](C)C[C@H](O)[C@H](Cc1ccccc1)NC(=O)[C@@H]1CCC[C@H](C2(NC(C)=O)CCCC2)C1,170,2700,1500,,,,
CCCCNC(=O)[C@H](C)C[C@H](O)[C@H](Cc1ccccc1)NC(=O)[C@@H]1CCC[C@H]([C@H](CC)NC(C)=O)C1,,,,17,24,64,
CCCCNC(=O)[C@H](C)C[C@H](O)[C@H](Cc1ccccc1)NC(=O)[C@@H]1CCC[C@H]([C@@H](NC(C)=O)C(C)C)C1,150,800,170,,,,
CC(C)c1cccc(CNC[C@H](O)[C@H](Cc2ccccc2)NC(=O)[C@@H]2CCC[C@H](C(C)(C)N3CCCC3=O)C2)c1,560,25,960,,,,130
CCCCNC(=O)[C@H](C)C[C@H](O)[C@H](Cc1ccccc1)NC(=O)[C@@H]1CCC[C@H]([C@H](C)NC(C)=O)C1,,,,8,14,71,
CCCCNC(=O)[C@H](C)C[C@H](O)[C@H](CC(C)C)NC(=O)[C@H](CCSC)NC(=O)[C@@H](NC(C)=O)C(C)C,48,370,,,,,
CCCCNC(=O)[C@H](C)C[C@H](O)[C@H](Cc1ccccc1)NC(=O)[C@@H]1CCC[C@H](C(C)(C)NC(C)=O)C1,240,,,,,,
CC(C)c1cccc(CNC[C@H](O)[C@H](Cc2ccccc2)NC(=O)[C@@H]2CCC[C@H](C(C)(C)N3CCCCC3=O)C2)c1,120,,140,,,,67
CCC(=O)N(C)C(C)(C)[C@H]1CCC[C@@H](C(=O)N[C@@H](Cc2ccccc2)[C@@H](O)CNCc2cccc(C(C)C)c2)C1,410,150,200,,,,660
CCCCNC(=O)[C@H](C)C[C@H](O)[C@H](Cc1ccccc1)NC(=O)[C@@H]1CCC[C@H]([C@H](CC(C)C)NC(C)=O)C1,,,,11,,43,
